Reference: US20050244472A1, “Intraocular drug delivery systems containing excipients with reduced toxicity and related methods” (Allergan, Inc., priority 2004, published 2005)
“And” between values parts separate entries of the source, which are not always exact repeats. Equal entries are not always repeated. Where two headings read alike, the source gives them in different places. Each block holds one substance with its values, some of them ahead of it.

Tests used:
[1] = pH of excipient-containing incubating solutions; format: physicochemical
Method: (§1) For each concentration of tested compound, pH and osmolarity parameters were measured.

[2] = Osmolarity of excipient-containing incubating solutions; format: physicochemical
Method: Osmolarity was measured using osmometer type 13/13DR from Roebling (Berlin, GR).
as §1

ARPE-19 cells [3] = experiment: MTT cell viability assay (mitochondrial dehydrogenase activity) after exposure to excipient
Excerpt: Cell viability and cell morphology were examined to evaluate the toxicity of excipients on retinal pigment epithelial cells. The human retina cell line used in these experiments is the ARPE-19 cell line (human adult-derived retinal pigmented epithelial cells). […] They form tight-junctions with transepithelial resistance of monolayers (Dunn K C et al., supra). From a molecular standpoint, it appears that ARPE-19 express a huge pattern of genes similar to those expressed by human RPE from fresh explant which could account for their physiological function (Klimanskaya I. et al., “Derivation and comparative assessment of retinal pigment epithelium from human embryonic stem cells using transcriptomics”, Cloning and Stem Cells, 2004, 6(3):217-45).
ARPE-19 cells are widely used as a retinal model that resemble physiological properties of RPE cells. Similar methods of culturing ARPE-19 cells and cytotoxicity assays can be found in Yeung et al., “Cytotoxicity of triamcinolone on cultured human retinal pigment epithelial cells: comparison with dexamethasone and hydrocortisone”, Jpn J. Ophthalmol, 2004; 48:236-242. Cell viability and cell morphology were examined using conventional colormetric and visual methods. Viability and morphology measurements were obtained at 24 hours, 48 hours, and 72 hours after exposure to an excipient composition.
To assess cell viability, mitochondrial metabolism was quantified through conventional colorometric assays (i.e., the MTT assay). This colorimetric assay utilizes 3-(4,5-dimethylthiazol-2-yl)-2,5-diphenyltetrazolium bromide (MTT) and correlates mitochondrial metabolism and cell viability through measurement of dehydrogenase activity which converts a substrate into crystal. More specifically, the assay measures the activity of living cells through mitochondrial dehydrogenases. When dissolved in culture cell medium, MTT solution appears dark orange. Mitochondrial dehydrogenases of viable cells degrade MTT by cleaving the tetrazolium ring yielding to formation of a purple formazan crystal, which is insoluble in water. Crystals are subsequently dissolved in isopropanol solution. A resulting purple solution is spectrophotometrically measured. Cell viability is relative to amount of formazan and calculated as a percentage of remaining treated compared to non-treated cells.
Results from the MTT assay were expressed as a percentage of cell viability calculated using the following equation: % cell viability=ODtest/ODcontrol×100.
For each experiment, one concentration was performed in triplicate. Each point was spectrophotometrically read twice. Average of readings was calculated, then average from these 3 values was determined.
After 3 experiments were independently completed under the same conditions, a graph was plotted with cell viability expressed as a function of concentration (dose response) and for various incubation period (time course). The IC50 was then estimated based on the graphed data.
More specifically, cell density in 24-multiwell plates was observed on the day of the experiment to check if confluence of the cells was reached. Aliquots of MTT concentrated solutions were removed from a freezer at −20° C. and thawed at room temperature. Cell medium was warmed at 37° C. before use. Appropriated tubes for diluting compounds were prepared. Higher concentrations of each excipient agent was prepared. Serial dilution was then performed in cell medium (DMEM:F12+10% FBS).
Cell culture medium in the 24-well plate was removed using vacuum-pump. Cells were then stimulated with 0.5 ml final volume for each concentration of one given excipient agent. Distribution of the excipient-containing solution was performed using automated pipet-aid in sterile environment (under PSM) or not depending on time of compounds and duration of incubation.
After stimulation, cells were replaced in a CO2 incubator for the required time of exposure.

ARPE-19 cells [4] = format: cell-based; set-up: key to Cell Morphology score, Mean: 5 = basal (wild type) to 1 = lethal phenotype
Method: Cell morphology was visualized using light microscopy. Cell morphology observation using light microscopy permits determination of (i) cell number and density and (ii) whether or not cells in contact with an excipient agent display modified phenotype compared to a non-treated population of cells.
Cell morphology was analyzed in parallel by semi-quantitative scoring ranging from 5 to 1, from basal to lethal phenotype respectively, as shown in FIG. 23.
More specifically, cells were removed from an incubator for examination. Morphological shape of cells was visualized using a light microscope and CCD camera. Every 3 wells of a given concentration was observed through image analysis software. Then, a representative photograph describing the average appearance of cells was saved. The supernatant was either, kept for further predefined experiments to perform, or removed using vacuum-pump.
Resulting semi-quantitative scoring is represented as a function of time course and dose response. Score 5: wild type phenotype of non-treated cells, 100% confluent adherent cells. This phenotype very much vary following post-seeding time. For example, at confluence ARPE-19 cells at 1 day appear well defined with visible outer membrane and dark grey cytoplasm. After 3 days of confluence, limits between cells become less visible and cells adopt a more hexagonal shape and constitute an epithelium-like uniform dense structure. Score 4: density<100%. Cell shape has changed, some spaces are present between cells, few cells possibly detached. Score 3: […]. Spaces are sometimes present among cells, areas appears confluent while in others, cells detached. General cell shape starts showing non negligible alterations. Score 2: Cell density<50%. Cells adopt exclusively stressed appearance, presence of mass dead floating cells. Score 1: Cell density<10%. Presence of almost exclusively dead cells.
Based on quotation, each condition of the applied compound was given a score which allow to a morphology evolution profile to be prepared, ie. cell morphology as a function of compound concentration and time of exposure. […]

[5] = 0.1% excipient dilution in culture medium
[6] = 0.5% excipient dilution in culture medium
[7] = 1% excipient dilution in culture medium
[8] = 5% excipient dilution in culture medium
[9] = 10% excipient dilution in culture medium
[10] = 20% excipient dilution in culture medium
[11] = 0.01% excipient dilution in culture medium
[12] = 0.02% excipient dilution in culture medium
[13] = 0.04% excipient dilution in culture medium
[14] = 0.06% excipient dilution in culture medium
[15] = 0.08% excipient dilution in culture medium

pH [1, 5]: 7.6 | pH [1, 6]: 7.6 | pH [1, 7]: 7.5 | pH [1, 8]: 7.5 | pH [1, 9]: 7.5 | pH [1, 10]: 7.6 | mOsm [2, 5]: 309 mOsm | mOsm [2, 6]: 317 mOsm | mOsm [2, 7]: 325 mOsm | mOsm [2, 8]: 375 mOsm | mOsm [2, 9]: 459 mOsm | mOsm [2, 10]: 635 mOsm
Substance: hydroxypropyl beta-cyclodextrin [Kleptose]
cell survival (ARPE-19 cells [3]; 5% (w/v), 24 hour time point): about 20%

Substance: hydroxypropyl gamma-cyclodextrin [Cavasol]
effect on both cell parameters (viability and morphology) (ARPE-19 cells [3]): no measurable effect | percentage of living cells (ARPE-19 cells [3]; 0.05 to 10%, recovery after 24 h): > 80% | reduction of cell survival (ARPE-19 cells [3]; 0.1% (w/v), 24 hour, 48 hour and 72 hour time points): ≤ 10% | IC50 (50% cell viability inhibition) (ARPE-19 cells [3]; deduced from viability graphs, incubation 24-72 h): not possible to determine the IC50

Substance: hydroxypropylmethyl cellulose [HPMC]
diminution of cell viability (ARPE-19 cells [3]): 20-40% | percentage of cell viability (ARPE-19 cells [3]): 60-80%

Substance: poloxamer 407nf
increase in cell viability up to (ARPE-19 cells [3]): up to 200%

pH [1, 11]: 7.5 | pH [1, 12]: 7.6 | pH [1, 13]: 7.5 | pH [1, 14]: 7.5 | pH [1, 15]: 7.5 | pH [1, 5]: 7.6 | mOsm [2, 11]: 310 mOsm | mOsm [2, 12]: 307 mOsm | mOsm [2, 13]: 313 mOsm | mOsm [2, 14]: 346 mOsm | mOsm [2, 15]: 390 mOsm | mOsm [2, 5]: 523 mOsm
Substance: polysorbate 80
Cell Morphology score (ARPE-19 cells [4]; 0.01% Tween80, 24 Hours): 4 (Score 4: density<100%) | Cell Morphology score, Mean (ARPE-19 cells [4]; 0.01% Tween80, 24 Hours): 4.0 | Cell Morphology score (ARPE-19 cells [4]; 0.01% Tween80, 48 Hours): 4 (Score 4: density<100%) | Cell Morphology score, Mean (ARPE-19 cells [4]; 0.01% Tween80, 48 Hours): 4.0 | Cell Morphology score (ARPE-19 cells [4]; 0.01% Tween80, 72 Hours): 4 (Score 4: density<100%) | Cell Morphology score, Mean (ARPE-19 cells [4]; 0.01% Tween80, 72 Hours): 4.0 | Cell Morphology score (ARPE-19 cells [4]; 0.02% Tween80, 24 Hours): 3 (Score 3: 80%<Cell density<40%) and 4 (Score 4: density<100%) | Cell Morphology score, Mean (ARPE-19 cells [4]; 0.02% Tween80, 24 Hours): 3.3 | Cell Morphology score (ARPE-19 cells [4]; 0.02% Tween80, 48 Hours): 3 (Score 3: 80%<Cell density<40%) and 4 (Score 4: density<100%) | Cell Morphology score, Mean (ARPE-19 cells [4]; 0.02% Tween80, 48 Hours): 3.3 | Cell Morphology score (ARPE-19 cells [4]; 0.02% Tween80, 72 Hours): 3 (Score 3: 80%<Cell density<40%) and 4 (Score 4: density<100%) | Cell Morphology score, Mean (ARPE-19 cells [4]; 0.02% Tween80, 72 Hours): 3.7 | Cell Morphology score (ARPE-19 cells [4]; 0.04% Tween80, 24 Hours): 3 (Score 3: 80%<Cell density<40%) and 4 (Score 4: density<100%) | Cell Morphology score, Mean (ARPE-19 cells [4]; 0.04% Tween80, 24 Hours): 3.3 | Cell Morphology score (ARPE-19 cells [4]; 0.04% Tween80, 48 Hours): 3 (Score 3: 80%<Cell density<40%) | Cell Morphology score, Mean (ARPE-19 cells [4]; 0.04% Tween80, 48 Hours): 3.0 | Cell Morphology score (ARPE-19 cells [4]; 0.04% Tween80, 72 Hours): 3 (Score 3: 80%<Cell density<40%) | Cell Morphology score, Mean (ARPE-19 cells [4]; 0.04% Tween80, 72 Hours): 3.0 | Cell Morphology score (ARPE-19 cells [4]; 0.06% Tween80, 24 Hours): 3 (Score 3: 80%<Cell density<40%) | Cell Morphology score, Mean (ARPE-19 cells [4]; 0.06% Tween80, 24 Hours): 3.0 | Cell Morphology score (ARPE-19 cells [4]; 0.06% Tween80, 48 Hours): 3 (Score 3: 80%<Cell density<40%) | Cell Morphology score, Mean (ARPE-19 cells [4]; 0.06% Tween80, 48 Hours): 3.0 | Cell Morphology score (ARPE-19 cells [4]; 0.06% Tween80, 72 Hours): 3 (Score 3: 80%<Cell density<40%) | Cell Morphology score, Mean (ARPE-19 cells [4]; 0.06% Tween80, 72 Hours): 3.0 | Cell Morphology score (ARPE-19 cells [4]; 0.08% Tween80, 24 Hours): 2 (Score 2: Cell density<50%) and 3 (Score 3: 80%<Cell density<40%) | Cell Morphology score, Mean (ARPE-19 cells [4]; 0.08% Tween80, 24 Hours): 2.3 | Cell Morphology score (ARPE-19 cells [4]; 0.08% Tween80, 48 Hours): 2 (Score 2: Cell density<50%) and 1 (Score 1: Cell density<10%) | Cell Morphology score, Mean (ARPE-19 cells [4]; 0.08% Tween80, 48 Hours): 1.7 | Cell Morphology score (ARPE-19 cells [4]; 0.08% Tween80, 72 Hours): 1 (Score 1: Cell density<10%) | Cell Morphology score, Mean (ARPE-19 cells [4]; 0.08% Tween80, 72 Hours): 1.0 | cells floating in a typical round dead shape (ARPE-19 cells [4]; 0.1%): over 95% | Cell Morphology score (ARPE-19 cells [4]; 0.1% Tween80, 24 Hours): 1 (Score 1: Cell density<10%) | Cell Morphology score, Mean (ARPE-19 cells [4]; 0.1% Tween80, 24 Hours): 1.0 | Cell Morphology score (ARPE-19 cells [4]; 0.1% Tween80, 48 Hours): 1 (Score 1: Cell density<10%) | Cell Morphology score, Mean (ARPE-19 cells [4]; 0.1% Tween80, 48 Hours): 1.0 | Cell Morphology score (ARPE-19 cells [4]; 0.1% Tween80, 72 Hours): 1 (Score 1: Cell density<10%) | Cell Morphology score, Mean (ARPE-19 cells [4]; 0.1% Tween80, 72 Hours): 1.0 | Morphology limit concentration (%) (ARPE-19 cells [4]; ARPE-19 cells, Table 3 summary): 0.06% | critical limit for lethality (injured cell aspect) (ARPE-19 cells [4]; morphology): 0.06% | overall cytotoxicity to ARPE-19 cells (conclusion in words) (ARPE-19 cells [3]): barely tolerated | cell survival (ARPE-19 cells [3]; 0.1% (w/v)): substantially zero

Substance: sodium carboxymethylcellulose [CMC]
percentage of cell viability (ARPE-19 cells [3]): 80-100%

pH [1, 5]: 7.6 | pH [1, 6]: 7.6 | pH [1, 7]: 7.6 | pH [1, 8]: 7.6 | pH [1, 9]: 7.7 | pH [1, 10]: 7.7 | mOsm [2, 5]: 310 mOsm | mOsm [2, 6]: 318 mOsm | mOsm [2, 7]: 333 mOsm | mOsm [2, 8]: 408 mOsm | mOsm [2, 9]: 518 mOsm | mOsm [2, 10]: 710 mOsm
Substance: sulfobutyl ether 4 beta-cyclodextrin [Captisol]
Cell Viability, Mean (%) (ARPE-19 cells [3]): 40% | overall cytotoxicity to ARPE-19 cells (conclusion in words) (ARPE-19 cells [3]): mild cytotoxicity
